Consider 2 molecules from patent US20190292189A1, “LIM KINASE INHIBITORS” (VIRONGY, LLC, priority 2016, published 2019).

For data set [1], the system named is p-cofilin in PC-3 prostate cancer cell lines. Briefly: Cofilin phosphorylation Western blot in PC-3 cells stimulated by HGF. To be noted: HGF-stimulated PC-3 cells; 50 nM. Type of data set: cell-based. How it is done:
PC3 cells were cultured at a density of 0.5×10^6 cells/mL in 60 mm culture dishes in 10% FBS RPMI1640 media. Then, the cells were treated with DMSO and the indicated concentration of Limk inhibitors. After incubating for 24 h, the cells were rinsed with ice-cold PBS twice and collected by spinning down at 4° C. in 10,000 rpm for 5 min Cellular lysates were prepared by suspending cells in SDS sample buffer, 120 mmol/L Tris, 4% SDS, 20% glycerol, 0.1 mg/mL bromophenol blue, and 100 mmol/L DTT (pH 6.8). After brief sonication, the lysates were heated at 95° C. for 5 minutes. The cell lysates were separated by 12% SDS-PAGE and transferred to Immobilon-P membranes (Millipore Corp) Immunostaining was done using antibodies specific for phospho-Cofilin (Cell Signaling, #3313) and β-Actin (GeneScript, #A00702) antibodies and the corresponding second antibodies for whole immunoglobulins from mouse or rabbit (Amersham Biosciences). Immunoreactive proteins were detected by chemoluminescence using the Pierce ECL Western Blotting Substrate (Thermo Scientific). We quantified the actual levels of proteins by using the Multigauge ver 3.0 software (Fujifilm). The gels were stained with Coomassie Brilliant Blue R-250 (0.25%) for 1 hour and then destained (all solutions from Bio-Rad) to check the loading amount of protein samples on the gels.
A general note: Immunoblotting shows a protein as a band on a membrane.

The test system of a further data set is PC-3 cells. Kind of data set: In vitro invasion assay in PC-3 cells. Particulars: Homo sapiens, 48 hours, compared to the control. Type of data set: cell-based. How it is done:
Transwell chambers coated with GFR Matrigel (BD Biosciences) were used for measurement of cell invasion. The matrigel was solidified at 37° C. in a humidified incubator the day before the assay. PC3 cells (1×10^3 cells per well) were grown in serum-free RPMI1640 media in the upper side of the insert. The lower well was filled with RPMI 1640 supplemented with 10% FBS with a Limk inhibitor (1 μM). PC3 cells were incubated at 37° C. in a humidified atmosphere containing 5% CO2 for 48 h. Then transwell membrane was rinsed three times with PBS, and the cells were fixed in 2.5% EM grade glutaraldehyde for 15 min at room temperature (RT) with no shaking. After removing glutaraldehyde by aspirating, the cells were permeabilized with 0.5% Triton X-100 in PBS for 3 min at RT, and they were rinsed three times with PBS. Then, the cells were stained by Gill's hematoxylin No. 1 for 15 min at RT, and they were washed by distilled water for three times. To remove any residual stain, the cells were washed by acid alcohol for 3 minutes and then rinsed by distilled water twice. The cells were exposed with 0.04% NH4OH until a blue color is observed on the membrane and then rinsed by distilled water twice. The membranes were dried overnight, and the stained cells were visualized under Leica DMI3000B microscope.

Data set [2] is described as follows: Microsomal stability, human liver microsomes. Type of data set: in vitro ADME. A general note: Liver microsomes are a subcellular fraction often used to study metabolism.
The next data set deals with Rev-CEM-GFP-Luc. To be noted: all concentrations tested (up to 200 μM).
For the next data set, the target named is T1, CAMK2b (Homo sapiens, UniProt Q13554).
T1 construct: purchased Reaction Biology Corporation
Briefly: Kinase profiling at 1 μM (Reaction Biology). The class given is biochemical. Particulars: ATP 10 μM. How it is done: (§1) Profiling was carried out at Reaction Biology Corporation following a protocol described at its website: http://www.reactionbiology.com/webapps/site/. The % data were the average from two determinations. ATP concentration used: 10 μM; Staurosporine was used as the positive control.
(§2) Biochemical assays for all Limk inhibitors and kinase profiling were carried out in Reaction Biology Corporation and followed the protocols described on its website. […] Compounds were tested at 1 μM with duplicate experiments in profiling assays. […] Reactions were carried out at 10 μM ATP, 1 μM substrate cofilin, and 50 nM Limk1 (final concentrations).

The target of the next data set is T2, STK33 (Homo sapiens, UniProt Q9BYT3).
T2 construct: purchased Reaction Biology Corporation
Kind of data set: Kinase profiling at 1 μM (Reaction Biology). To be noted: ATP 10 μM. The class given is biochemical. How it is done:
as §1, §2

The next data set has as its target T3, FLT3 (Homo sapiens, UniProt P36888).
T3 construct: purchased Reaction Biology Corporation
Briefly: Kinase profiling at 1 μM (Reaction Biology). The class given is biochemical. Particulars: ATP 10 μM. How it is done:
as §1, §2

Another data set concerns the target T4, mTOR/FRAP1 (Homo sapiens, UniProt P42345).
T4 construct: purchased Reaction Biology Corporation
Kind of data set: Kinase profiling at 1 μM (Reaction Biology). The class given is biochemical. To be noted: ATP 10 μM. How it is done: as §1, §2

For another data set, the target named is T5, FAK/PTK2 (Homo sapiens, UniProt Q05397).
T5 construct: purchased Reaction Biology Corporation
Kind of data set: Kinase profiling at 1 μM (Reaction Biology). The class given is biochemical. To be noted: ATP 10 μM. How it is done: as §1, §2

The target in another data set is T6, AKT2 (Homo sapiens, UniProt P31751).
T6 construct: purchased Reaction Biology Corporation
Kind of data set: Kinase profiling at 1 μM (Reaction Biology). Type of data set: biochemical. Particulars: ATP 10 μM. How it is done: as §1, §2

The target of the next data set is T7, G5K3b (Homo sapiens, UniProt P49841).
T7 construct: purchased Reaction Biology Corporation
Kind of data set: Kinase profiling at 1 μM (Reaction Biology). The class given is biochemical. Particulars: ATP 10 μM. How it is done:
as §1, §2

For a further data set, the target named is T8, KDR/VEGFR2 (Homo sapiens, UniProt P35968).
T8 construct: purchased Reaction Biology Corporation
Briefly: Kinase profiling at 1 μM (Reaction Biology). The class given is biochemical. To be noted: ATP 10 μM. How it is done: as §1, §2

A further data set concerns the target T9, TAOK1 (Homo sapiens, UniProt Q7L7X3).
T9 construct: purchased Reaction Biology Corporation
Kind of data set: Kinase profiling at 1 μM (Reaction Biology). The class given is biochemical. Particulars: ATP 10 μM. How it is done:
as §1, §2

The target of a further data set is T10, IKKe/IKBKE (Homo sapiens, UniProt Q14164).
T10 construct: purchased Reaction Biology Corporation
Briefly: Kinase profiling at 1 μM (Reaction Biology). Particulars: ATP 10 μM. The class given is biochemical. How it is done: as §1, §2

A further data set concerns the target T11, c-MET (Homo sapiens, UniProt P08581).
T11 construct: purchased Reaction Biology Corporation
Kind of data set: Kinase profiling at 1 μM (Reaction Biology). The class given is biochemical. Particulars: ATP 10 μM. How it is done:
as §1, §2

The target in the next data set is T12, CDK5/p35 (Homo sapiens, UniProt Q00535).
T12 construct: purchased Reaction Biology Corporation
Kind of data set: Kinase profiling at 1 μM (Reaction Biology). The class given is biochemical. To be noted: ATP 10 μM. How it is done: as §1, §2

A further data set concerns the target T13, PLK2 (Homo sapiens, UniProt Q9NYY3).
T13 construct: purchased Reaction Biology Corporation
Briefly: Kinase profiling at 1 μM (Reaction Biology). To be noted: ATP 10 μM. The class given is biochemical. How it is done:
as §1, §2

For another data set, the target named is T14, RET (Homo sapiens, UniProt P07949).
T14 construct: purchased Reaction Biology Corporation
Briefly: Kinase profiling at 1 μM (Reaction Biology). Type of data set: biochemical. Particulars: ATP 10 μM. How it is done: as §1, §2

The target of another data set is T15, ABL1 (Homo sapiens, UniProt P00519).
T15 construct: purchased Reaction Biology Corporation
Briefly: Kinase profiling at 1 μM (Reaction Biology). Type of data set: biochemical. To be noted: ATP 10 μM. How it is done: as §1, §2

Another data set concerns the target T16, BRAF (Homo sapiens, UniProt P15056).
T16 construct: purchased Reaction Biology Corporation
Briefly: Kinase profiling at 1 μM (Reaction Biology). The class given is biochemical. To be noted: ATP 10 μM. How it is done: as §1, §2

The target of a further data set is T17, EGFR (Homo sapiens, UniProt P00533).
T17 construct: purchased Reaction Biology Corporation
Kind of data set: Kinase profiling at 1 μM (Reaction Biology). The class given is biochemical. To be noted: ATP 10 μM. How it is done:
as §1, §2

The next data set addresses T18, PKCa (Homo sapiens, UniProt P17252).
T18 construct: purchased Reaction Biology Corporation
Kind of data set: Kinase profiling at 1 μM (Reaction Biology). The class given is biochemical. To be noted: ATP 10 μM. How it is done:
as §1, §2

For the next data set, the target named is T19, TESK1 (Homo sapiens, UniProt Q15569).
T19 construct: purchased Reaction Biology Corporation
Kind of data set: Kinase profiling at 1 μM (Reaction Biology). Type of data set: biochemical. To be noted: ATP 10 μM. How it is done: as §1, §2

A further data set concerns the target T20, MLCK/MYLK (Homo sapiens, UniProt Q15746).
T20 construct: purchased Reaction Biology Corporation
Kind of data set: Kinase profiling at 1 μM (Reaction Biology). The class given is biochemical. To be noted: ATP 10 μM. How it is done: as §1, §2

T16 sequence (P15056 whole entry): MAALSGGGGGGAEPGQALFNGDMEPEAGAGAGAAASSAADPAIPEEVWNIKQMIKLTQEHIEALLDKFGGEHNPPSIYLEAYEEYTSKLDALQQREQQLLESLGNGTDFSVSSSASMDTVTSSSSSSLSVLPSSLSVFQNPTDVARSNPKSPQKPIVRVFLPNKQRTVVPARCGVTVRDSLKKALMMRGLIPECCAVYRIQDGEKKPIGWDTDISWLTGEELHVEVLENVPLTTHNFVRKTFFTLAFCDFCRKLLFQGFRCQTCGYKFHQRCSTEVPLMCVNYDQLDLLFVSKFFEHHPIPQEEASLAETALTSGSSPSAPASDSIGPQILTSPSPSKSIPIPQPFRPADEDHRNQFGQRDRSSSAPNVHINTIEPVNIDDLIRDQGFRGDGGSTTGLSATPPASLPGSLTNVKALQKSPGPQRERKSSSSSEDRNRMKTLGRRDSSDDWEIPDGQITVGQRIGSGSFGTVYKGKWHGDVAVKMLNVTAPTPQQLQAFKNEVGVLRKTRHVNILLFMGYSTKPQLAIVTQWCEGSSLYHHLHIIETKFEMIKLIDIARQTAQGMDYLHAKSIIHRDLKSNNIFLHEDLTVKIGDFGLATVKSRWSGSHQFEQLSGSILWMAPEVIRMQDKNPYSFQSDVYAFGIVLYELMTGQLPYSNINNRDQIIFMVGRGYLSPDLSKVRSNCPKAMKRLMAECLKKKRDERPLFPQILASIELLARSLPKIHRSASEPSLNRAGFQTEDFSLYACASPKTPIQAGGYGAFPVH
T9 sequence (Q7L7X3 whole entry): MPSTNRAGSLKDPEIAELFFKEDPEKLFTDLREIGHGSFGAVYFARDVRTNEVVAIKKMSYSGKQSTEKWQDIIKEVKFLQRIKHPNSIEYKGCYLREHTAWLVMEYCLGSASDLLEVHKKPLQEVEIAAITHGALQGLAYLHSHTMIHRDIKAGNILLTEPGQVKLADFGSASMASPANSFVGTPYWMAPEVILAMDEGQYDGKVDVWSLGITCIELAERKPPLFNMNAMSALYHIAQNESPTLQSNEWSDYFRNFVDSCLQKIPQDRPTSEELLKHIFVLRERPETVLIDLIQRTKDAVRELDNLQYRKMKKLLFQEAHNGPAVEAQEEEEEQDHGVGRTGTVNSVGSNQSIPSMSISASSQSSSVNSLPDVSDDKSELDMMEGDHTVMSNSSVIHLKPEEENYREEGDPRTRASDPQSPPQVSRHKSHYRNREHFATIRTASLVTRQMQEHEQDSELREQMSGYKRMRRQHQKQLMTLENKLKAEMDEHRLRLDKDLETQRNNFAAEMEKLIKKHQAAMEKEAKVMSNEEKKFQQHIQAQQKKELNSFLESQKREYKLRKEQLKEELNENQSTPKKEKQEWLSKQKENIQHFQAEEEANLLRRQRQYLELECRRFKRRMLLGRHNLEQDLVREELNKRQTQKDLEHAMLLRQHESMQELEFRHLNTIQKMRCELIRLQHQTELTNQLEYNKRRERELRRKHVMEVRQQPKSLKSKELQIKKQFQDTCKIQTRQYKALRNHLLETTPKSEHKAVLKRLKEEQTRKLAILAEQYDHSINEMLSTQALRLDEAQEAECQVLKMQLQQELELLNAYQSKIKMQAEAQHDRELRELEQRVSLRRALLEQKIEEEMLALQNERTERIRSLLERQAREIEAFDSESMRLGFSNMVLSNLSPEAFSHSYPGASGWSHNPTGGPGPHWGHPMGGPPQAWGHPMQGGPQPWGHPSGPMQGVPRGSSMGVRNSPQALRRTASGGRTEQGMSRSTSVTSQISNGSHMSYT
T12 sequence (Q00535 whole entry): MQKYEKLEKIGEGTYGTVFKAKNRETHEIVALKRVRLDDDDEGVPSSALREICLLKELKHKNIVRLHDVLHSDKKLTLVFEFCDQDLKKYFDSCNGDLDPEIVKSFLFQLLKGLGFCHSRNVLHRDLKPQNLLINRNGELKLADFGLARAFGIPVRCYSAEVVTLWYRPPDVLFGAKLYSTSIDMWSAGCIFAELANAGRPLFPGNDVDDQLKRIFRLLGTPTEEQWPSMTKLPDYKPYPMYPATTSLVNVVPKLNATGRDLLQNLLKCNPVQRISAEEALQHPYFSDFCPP
T12 sequence (Q15078 whole entry partner): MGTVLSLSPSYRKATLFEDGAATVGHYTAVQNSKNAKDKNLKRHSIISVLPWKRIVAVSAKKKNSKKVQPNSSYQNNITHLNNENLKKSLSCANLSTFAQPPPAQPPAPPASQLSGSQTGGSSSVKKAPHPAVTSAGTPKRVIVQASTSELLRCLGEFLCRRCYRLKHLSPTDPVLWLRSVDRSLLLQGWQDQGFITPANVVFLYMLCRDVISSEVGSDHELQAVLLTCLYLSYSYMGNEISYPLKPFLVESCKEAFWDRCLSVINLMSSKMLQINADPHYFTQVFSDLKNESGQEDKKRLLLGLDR
T17 sequence (P00533 25-1210): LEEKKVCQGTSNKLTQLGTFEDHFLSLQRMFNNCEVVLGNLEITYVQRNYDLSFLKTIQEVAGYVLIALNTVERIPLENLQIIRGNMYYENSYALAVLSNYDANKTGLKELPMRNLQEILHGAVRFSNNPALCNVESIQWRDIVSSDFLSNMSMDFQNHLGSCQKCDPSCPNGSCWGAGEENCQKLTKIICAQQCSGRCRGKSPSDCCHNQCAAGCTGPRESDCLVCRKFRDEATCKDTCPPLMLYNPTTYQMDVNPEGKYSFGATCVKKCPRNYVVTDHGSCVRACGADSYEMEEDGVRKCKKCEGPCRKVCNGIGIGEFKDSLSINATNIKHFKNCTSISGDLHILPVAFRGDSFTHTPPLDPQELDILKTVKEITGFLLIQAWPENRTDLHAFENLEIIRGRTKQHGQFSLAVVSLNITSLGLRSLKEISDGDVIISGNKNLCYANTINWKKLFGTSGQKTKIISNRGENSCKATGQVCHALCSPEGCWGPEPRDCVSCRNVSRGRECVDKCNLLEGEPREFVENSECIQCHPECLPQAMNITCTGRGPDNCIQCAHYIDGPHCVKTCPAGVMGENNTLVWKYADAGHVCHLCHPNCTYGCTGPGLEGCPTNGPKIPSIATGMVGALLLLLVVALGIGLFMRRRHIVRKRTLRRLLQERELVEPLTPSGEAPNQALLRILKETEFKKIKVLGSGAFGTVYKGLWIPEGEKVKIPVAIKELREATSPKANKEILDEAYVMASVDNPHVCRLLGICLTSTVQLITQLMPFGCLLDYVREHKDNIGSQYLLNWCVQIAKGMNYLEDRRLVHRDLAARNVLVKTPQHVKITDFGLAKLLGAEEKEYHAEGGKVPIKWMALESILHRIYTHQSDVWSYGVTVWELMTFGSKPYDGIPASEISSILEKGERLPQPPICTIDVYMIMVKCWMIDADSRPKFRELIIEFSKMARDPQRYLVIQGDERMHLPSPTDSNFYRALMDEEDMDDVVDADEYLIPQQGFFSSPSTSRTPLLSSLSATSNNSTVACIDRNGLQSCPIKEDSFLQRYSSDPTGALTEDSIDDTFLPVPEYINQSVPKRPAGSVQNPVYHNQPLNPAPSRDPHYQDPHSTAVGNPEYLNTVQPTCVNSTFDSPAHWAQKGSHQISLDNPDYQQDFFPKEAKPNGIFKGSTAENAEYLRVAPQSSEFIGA
T15 sequence (P00519 whole entry): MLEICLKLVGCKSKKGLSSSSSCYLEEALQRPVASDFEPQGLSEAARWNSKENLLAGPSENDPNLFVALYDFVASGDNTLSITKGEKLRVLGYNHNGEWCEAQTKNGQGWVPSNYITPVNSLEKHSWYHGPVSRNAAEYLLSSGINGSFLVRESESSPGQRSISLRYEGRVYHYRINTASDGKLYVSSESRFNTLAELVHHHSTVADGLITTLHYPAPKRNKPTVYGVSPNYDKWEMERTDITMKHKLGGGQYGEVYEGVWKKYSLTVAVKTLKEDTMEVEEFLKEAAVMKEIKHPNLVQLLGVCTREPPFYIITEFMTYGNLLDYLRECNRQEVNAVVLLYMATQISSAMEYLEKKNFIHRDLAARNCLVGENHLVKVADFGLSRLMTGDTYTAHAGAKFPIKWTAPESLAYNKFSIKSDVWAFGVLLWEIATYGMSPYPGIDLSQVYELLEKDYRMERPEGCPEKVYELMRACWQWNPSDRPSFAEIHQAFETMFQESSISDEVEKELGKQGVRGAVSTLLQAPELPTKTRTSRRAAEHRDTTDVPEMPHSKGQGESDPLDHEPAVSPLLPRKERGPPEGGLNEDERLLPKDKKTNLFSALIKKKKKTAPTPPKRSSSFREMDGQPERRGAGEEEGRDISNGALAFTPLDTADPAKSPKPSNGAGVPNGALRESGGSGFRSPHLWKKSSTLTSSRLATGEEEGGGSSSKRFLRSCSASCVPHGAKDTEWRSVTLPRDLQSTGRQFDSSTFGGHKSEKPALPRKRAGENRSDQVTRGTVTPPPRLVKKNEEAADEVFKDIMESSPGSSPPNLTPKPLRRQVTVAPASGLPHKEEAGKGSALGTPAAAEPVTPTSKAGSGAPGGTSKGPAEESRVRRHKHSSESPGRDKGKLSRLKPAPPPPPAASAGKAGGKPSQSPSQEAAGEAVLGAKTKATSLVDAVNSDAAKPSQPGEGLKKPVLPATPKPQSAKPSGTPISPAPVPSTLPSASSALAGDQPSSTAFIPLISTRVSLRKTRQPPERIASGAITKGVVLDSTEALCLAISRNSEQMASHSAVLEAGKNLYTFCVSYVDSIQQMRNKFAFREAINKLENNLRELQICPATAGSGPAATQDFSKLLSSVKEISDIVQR

Take `Cc1c[nH]c2ncnc(-c3ccc(NC(=O)N(CCO)c4ccccc4)cc3)c12` [Compound 18b, 1-(2-Hydroxyethyl)-3-(4-(5-methyl-7H-pyrrolo[2,3-d]pyrimidin-4-yl)phenyl)-1-phenylurea]: in [1], the “inhibition of cofilin phosphorylation in PC-3 cells (Western blot)” value is “significant inhibition”. In the data set with PC-3 cells, the inhibition – broadly, how much of the control response was suppressed – at 1 µM amounted to 76%. In addition, in [2], the “Microsomal Stability t1/2 (min) Human” value is listed as 87 min.
Turning to `COC(=O)c1ccc2[nH]c(C3CCN(c4ncnc5[nH]cc(Cl)c45)CC3)nc2c1` [Compound R10015, Methyl 2-(1-(5-chloro-7H-pyrrolo[2,3-d]pyrimidin-4-yl)piperidin-4-yl)-1Hbenzo[d]imidazole-5-carboxylate], the cytotoxicity result in the data set on Rev-CEM-GFP-Luc is “no detectable cytotoxicity”. Further, the activity at 1 µM on CAMK2b turned out to be 90.8%; at STK33, 56.5%; on FLT3, 32.2%; at mTOR/FRAP1 it was 100%; at FAK/PTK2, 81.5%; at AKT2, 73.1%. The activity at 1 µM amounted to 67.8% on G5K3b; 87.2% on KDR/VEGFR2; 54% on TAOK1; 84.1% on IKKe/IKBKE; 82.1% at c-MET; 85.5% on CDK5/p35. Moreover, the activity at 1 µM on PLK2 came out at 103%; at RET it was 46.5%; at ABL1, 89.2%; at BRAF, 91.9%; at EGFR, 93.2%; on PKCa it was 47.5%. The activity at 1 µM on TESK1 was 90.2%; at MLCK/MYLK, 83.3%.
